Legend:
mouse = test: intraperitoneal acute toxicity test in mouse (Test Example 2); assay type: in vivo, mouse (Slc: ddy male); conditions: 14 days observation, five mice per group
Protocol: (§1) Fifty % inhibitory dose (ID50) in Passive Cutaneous Anaphylaxis (PCA) test in rat (Test Example 1) and Minimal Lethal Dose (MLD) in intraperitoneal acute toxicity test in mouse (Test Example 2) were determined for the typical compounds of the present invention as follows:
The intraperitoneal actute toxicity test was carried out using mouse for the chromene derivatives of the present invention. Normal Slc: ddy male 4 weeks mice were preliminarily breeded for a week at a breeding room and those weighing 25 to 27 g were subjected to the test. The test compounds were used by suspending in 0.5% aqueous solution of sodium carboxymethylcellulose. Ten ml/kg was administered intraperitoneally through the right abdomen of the animal using the prescribed needle (five mice per group). The lethal dose was presumed by the observation during 14 days after administration.

[1] = tested on: passive cutaneous anaphylaxis by homocytotropic antibody (HTA); test: Passive Cutaneous Anaphylaxis (PCA) test in rat (Test Example 1); assay type: in vivo, rat (Wistar); conditions: 0.5 h, 72 hour PCA, intravenous just before antigen, sacrificed 30 minutes after antigen challenge, read-out: ID50 (fifty % inhibitory dose for the leaked amount of the pigment)
Protocol: as §1
The antiallergic activities of the chromene derivatives of the present invention were tested in passive cutaneous anaphylaxis (hereinafter referred to as "PCA") by homocytotropic antibody (hereinafter referred to as "HTA").
DNP-As(2,4-dinitro phenyl-coupled Ascaris extract) was prepared according to the method by Strejan et al. (J. Immunol. Vol. 98, P 893, (1967)) and by Eisen (J. Amer. Chem. Soc. Vol. 75, P 4593, (1953)) to be used as antigen. Antiserum containing HTA was prepared by the method according to Tada and Okumura (J. Immunol. Vol. 106, P 1002, (1972)) as follows: i.e. spleen was taken out from Wistar female rat weighing 180 to 200 g and several days after 1 mg of DNP-As and 1×10^10 of Bordetella pertussis vaccine were injected into four footpads of the rat to induce senitization. After five days, again 0.5 mg of DNP-As was solely injected into the dorsal muscles. Eight days after priming, blood was taken by paracentesis of aorta under anesthetic condition with ether and the obtained antiserum was stored at -80° C.
Titer of the stored antiserum was determined by 72 hour PCA method in rat as described in the following item (2). The maximal dilution of the antiserum which can give a spot with a diameter of around 5 mm was usually 500 times.
The diluted antiserum (×30) was injected 0.05 ml/site intradermally into the shaved back of normal Wistar rat weighing 140 to 160 g. After 72 hours, 1 ml of physiological saline containing 2 mg of DNP-As and 2.5 mg of Evans blue was injected intravenously.
Test compound was dissolved in 0.5% aqueous solution of KHCO3, which was administered intravenously in an amount of 2 ml/kg just before the administration of the antigen. The animal was sacrificed 30 minutes after antigen challenge and the cutis was peeled off. The intensity of PCA was evaluated for the measurment of the leaked amount of the pigment. The leaked pigment was extracted according to the method by Harada et al. (Jpn. J. Allergol., Vol. 15, P 1, (1966)) and the leaked amount was measured by spectrophotometry. Fifty % inhibitory dose for the leaked amount of the pigment was regarded as ID50 value of the test compound.

[2] = tested on: experimental asthma model of animals; test: experimental asthma model of animals; assay type: in vivo

Compound | MLD (Minimal Lethal Dose) (mouse) | ED50 [1] | inhibitory effect in experimental asthma model [2]
O=C(O)CCCOc1ccc2oc(=O)c(-c3nnn[nH]3)cc2c1 [Compound C, 4-[2-oxo-3-(1H-tetrazole-5-yl)-2H-chromene-6-yloxy]butyric acid] | > 1500 mg/kg | 0.1 mg/kg | –
O=C(O)CCCCCOc1ccc2oc(=O)c(-c3nnn[nH]3)cc2c1 [Compound F, 6-[2-oxo-3-(1H-tetrazole-5-yl)-2H-chromene-6-yloxy]hexanoic acid] | > 1600 mg/kg | 0.16 mg/kg | –
O=C(O)COc1cccc2cc(-c3nnn[nH]3)c(=O)oc12 [Compound A, [2-oxo-3-(1H-tetrazole-5-yl)-2H-chromene-8-yloxy]acetic acid] | > 1000 mg/kg | 0.5 mg/kg | –
O=C(O)CCCOc1cccc2cc(-c3nnn[nH]3)c(=O)oc12 [Compound B, 4-[2-oxo-3-(1H-tetrazole-5-yl)-2H-chromene-8 yloxy]butyric acid] | > 1600 mg/kg | 0.1 mg/kg | inhibitory effect in high degree
O=C(O)CCCCCOc1ccc2cc(-c3nnn[nH]3)c(=O)oc2c1 [Compound E, 6-[2-oxo-3-(1H-tetrazole-5-yl)-2H-chromene-7-yloxy]hexanoic acid] | > 1500 mg/kg | 0.2 mg/kg | –
O=C(O)CCCCCOc1cccc2cc(-c3nnn[nH]3)c(=O)oc12 [Compound D, 6-[2-oxo-3-(1H-tetrazole-5-yl)-2H-chromene-8-yloxy]hexanoic acid] | > 1600 mg/kg | 0.16 mg/kg | –
O=C(O)CCCCCOc1cccc2oc(=O)c(-c3nnn[nH]3)cc12 [Compound G, 6-[2-oxo-3-(1H-tetrazole-5-yl)-2H-chromene-5-yloxy]hexanoic acid] | > 1500 mg/kg | 0.2 mg/kg | –
